Source: article PMC9574855 (Journal of Medicinal Chemistry, 2022)

What was measured:
[1] = test system: His6-SARS-CoV-2 spike protein uptake by HEK293T-ACE2 cells; test: Spike uptake assay in HEK293T-ACE2 cells; format: cell-based, human; settings: 1 μM
[2] = test system: His6-SARS-CoV-2 spike protein uptake by Calu-3 cells; test: Spike uptake assay in Calu-3 cells; format: cell-based; settings: 1 μM
[3] = test system: His6-SARS-CoV-2 spike protein uptake by Caco-2 cells; test: Spike uptake assay in Caco-2 cells; format: cell-based; settings: 1 μM
[4] = test system: lentivirus pseudotyped with the SARS-CoV-2 spike glycoprotein; format: cell-based; settings: Calu-3 cells, 1 μM
bald GFP lentivirus = format: cell-based; settings: Calu-3 cells, 1 μM
SH-SY5Y cells = test: Lysosomal staining; format: cell-based, human; settings: 5 μM, 24 h
403 WT human kinases = settings: 1 μM, published data, apilimod; cited from earlier work
LOK = settings: 300 nM, KiNativ, Jurkat cell lysate; cited from earlier work
ITPK1 = settings: 300 nM, KiNativ, Jurkat cell lysate; cited from earlier work
[5] = test system: 24 human lipid kinases and 83 human protein kinases; settings: 300 nM, KiNativ; cited from earlier work

Row | SMILES | His6-SARS-CoV-2 spike protein uptake [1] | His6-SARS-CoV-2 spike protein uptake [2] | His6-SARS-CoV-2 spike protein uptake [3] | entry of lentivirus pseudotyped with SARS-CoV-2 spike glycoprotein [4] | entry of bald lentivirus (bald GFP lentivirus) | vacuoles in LysoTracker-stained cells (SH-SY5Y cells) | # scanMAX kinases with PoC < 10 (403 WT human kinases) | inhibition of LOK (LOK) [%] | inhibition of ITPK1 (ITPK1) [%] | Gini coefficient [5]
1 | Cc1cccc(/C=N/Nc2cc(N3CCOCC3)nc(OCCc3ccccn3)n2)c1 [Apilimod, 4-(6-(2-(3-Methylbenzylidene)hydrazinyl)-2-(2-(pyridin-2-yl)ethoxy)pyrimidin-4-yl)morpholine, reference compound] | significantly reduced spike protein uptake | efficiently reduced spike protein uptake | efficiently reduced spike protein uptake | inhibition of pseudoviral entry | entry of bald lentivirus was not impacted | vacuoles are present | 1 | – | – | –
2 | Cc1cccc(/C=N/Nc2cc(N3CCOCC3)n3nc(-c4ccncc4)cc3n2)c1 [APY0201, 2-[7-(4-morpholinyl)-2-(4-pyridinyl)pyrazolo[1,5-a]pyrimidin-5-yl]hydrazone, 3-methyl-benzaldehyde] | – | – | – | – | – | – | – | > 50 | > 50 | 0.753
